According to PubChem BioAssay (NCI):
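Step 1: Grow cells in 96-well plates. Step 2: Expose to compound for 48 hours at 5 concentrations. Step 3: Interpolate endpoints linearly; if unreached, use highest concentration. Definition used: TGI = concentration required for complete inhibition of growth.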 Where a SMILES comes first, the peptide text is derived from it. [ ]: non-standard residue; d: D form.

Experiments:
Experiment in all cases: NCI-60 cell line screen, 48 h
[1] = system: DMS 114 small cell lung
[2] = system: DMS 273 small cell lung
[3] = system: MOLT-4 leukemia
[4] = system: NCI-H23 lung
[5] = system: NCI-H460 lung
[6] = system: SN12C renal
[7] = system: SW-620 colon
[8] = system: CAKI-1 renal
[9] = system: MDA-N
[10] = system: PC-3 prostate
[11] = system: SR leukemia

SMILES	TGI [1] [µM]	TGI [2] [µM]	TGI [3] [µM]	TGI [4] [µM]	TGI [5] [µM]	TGI [6] [µM]	TGI [7] [µM]	TGI [8] [µM]	TGI [9] [µM]	TGI [10] [µM]	TGI [11] [µM]
CC(C)C[C@H](NC(=O)[C@H](CC(C)C)NC(=O)[C@@H](Cc1c[nH]c2ccccc12)NC(=O)[C@H](Cc1ccccc1)NC(=O)[C@@H](Cc1c[nH]c2ccccc12)NC(=O)[C@H](CCC(N)=O)NC(=O)[C@@H](CCC(N)=O)NC(=O)[C@@H]1CCCN1C(=O)[C@@H](CCCCN)NC(=O)[C@H]1CCCN1C(=O)[C@H](N)CCCN=C(N)N)C(N)=O (H-[dR][dP][dK]P[dQ]Q[dW]F[dW]LL-NH2)	> 100	> 100	> 79.5	> 100	> 100	> 100	> 100				
O=S(=O)(O)c1cc(S(=O)(=O)O)c2cc(N=Nc3ccc(N=Nc4ccc(/C=C/c5ccc(N=[N+]([O-])c6ccc(/C=C/c7ccc(N=Nc8ccc(N=Nc9ccc%10cc(S(=O)(=O)O)cc(S(=O)(=O)O)c%10c9)cc8)cc7S(=O)(=O)O)c(S(=O)(=O)O)c6)cc5S(=O)(=O)O)c(S(=O)(=O)O)c4)cc3)ccc2c1	> 100	> 100	> 100	> 100	> 100	> 100					
NC(=Nc1ccccc1)N/N=C/c1c[nH]c2ccccc12	2.03	13.8	48.4	2.93	4.41	15.6	5.02	22.9	0.0405	12.1	> 50.1
Cc1cc(C)[n+]2c(c1)C=CC2	93.3	4.24		84.2	> 100	> 100	> 100	> 100			
O=C(Nc1ccc(Br)cc1)C(=O)C(C(=O)c1ccc(Cl)c(Cl)c1)C1OC(=O)c2ccccc21 (stereo unspecified)	28.6	60	> 100	29.3	38.2	68.3	38.4	51.3			> 100
CC1(C)CC(=O)C(CC2C(=O)CCCC2=O)C(=O)C1	> 100	> 100	> 100	> 100	> 100	> 100	> 100	> 100			> 100
C/C(=N\N=C(N)N)C(CN1CCOCC1)C(c1ccccc1)c1c(O)c2ccccc2oc1=O (stereo unspecified)	> 100	> 100	> 100	> 100	> 100	> 100	> 100	> 100			> 100
O=C1Sc2ccccc2C(=O)N2CCSC12 (stereo unspecified)	> 100	> 100	> 100	> 100	> 100	> 100	> 100				> 100
O=C1CCC2(O)c3ccccc3C2Cc2ccccc21 (stereo unspecified)	> 100	> 100	> 100	> 100	> 100	> 100	> 100				> 100
Clc1ccc(C2SCc3nc4ccccc4n32)cc1 (stereo unspecified)	37.4	36.2	56.1	48.3	93.3	42.7	> 100	73.9			
N#CC1=C(O)NC(O)=C(C#N)C1c1c(Cl)cccc1Cl	46	92	> 100	> 100	61.5	> 100	> 100	> 100			> 100
COc1ccc(C(C2=C(O)CC(C)OC2=O)C2=C(O)CC(C)OC2=O)cc1 (stereo unspecified)	> 100	> 100	> 100	> 100	> 100	> 100	> 100	> 100			> 100
COCC(C#N)NC1CC(OC2CC(O)(C(=O)CO)Cc3c(O)c4c(c(O)c32)C(=O)c2c(OC)cccc2C4=O)OC(C)C1O (stereo unspecified)	0.176	0.602	0.0471	0.682	0.189	2.02	4.8	0.285	0.349	1.2	0.15
